According to patent publication US7282354B2, “Method for producing fermented milk product” (Calpis Co., Ltd., priority 2000, dated 2007):

What was measured:
[1] = system: spontaneously hypertensive rat (SHR); conditions: J. Dairy Sci. 78:1253-1257(1995); cited from earlier work
ACE = ACE (Homo sapiens, UniProt P12821); assay: ACE inhibitory activity of IPP per unit weight relative to VPP; assay type: biochemical
Chain of ACE (P12821 30-1306, species assumed): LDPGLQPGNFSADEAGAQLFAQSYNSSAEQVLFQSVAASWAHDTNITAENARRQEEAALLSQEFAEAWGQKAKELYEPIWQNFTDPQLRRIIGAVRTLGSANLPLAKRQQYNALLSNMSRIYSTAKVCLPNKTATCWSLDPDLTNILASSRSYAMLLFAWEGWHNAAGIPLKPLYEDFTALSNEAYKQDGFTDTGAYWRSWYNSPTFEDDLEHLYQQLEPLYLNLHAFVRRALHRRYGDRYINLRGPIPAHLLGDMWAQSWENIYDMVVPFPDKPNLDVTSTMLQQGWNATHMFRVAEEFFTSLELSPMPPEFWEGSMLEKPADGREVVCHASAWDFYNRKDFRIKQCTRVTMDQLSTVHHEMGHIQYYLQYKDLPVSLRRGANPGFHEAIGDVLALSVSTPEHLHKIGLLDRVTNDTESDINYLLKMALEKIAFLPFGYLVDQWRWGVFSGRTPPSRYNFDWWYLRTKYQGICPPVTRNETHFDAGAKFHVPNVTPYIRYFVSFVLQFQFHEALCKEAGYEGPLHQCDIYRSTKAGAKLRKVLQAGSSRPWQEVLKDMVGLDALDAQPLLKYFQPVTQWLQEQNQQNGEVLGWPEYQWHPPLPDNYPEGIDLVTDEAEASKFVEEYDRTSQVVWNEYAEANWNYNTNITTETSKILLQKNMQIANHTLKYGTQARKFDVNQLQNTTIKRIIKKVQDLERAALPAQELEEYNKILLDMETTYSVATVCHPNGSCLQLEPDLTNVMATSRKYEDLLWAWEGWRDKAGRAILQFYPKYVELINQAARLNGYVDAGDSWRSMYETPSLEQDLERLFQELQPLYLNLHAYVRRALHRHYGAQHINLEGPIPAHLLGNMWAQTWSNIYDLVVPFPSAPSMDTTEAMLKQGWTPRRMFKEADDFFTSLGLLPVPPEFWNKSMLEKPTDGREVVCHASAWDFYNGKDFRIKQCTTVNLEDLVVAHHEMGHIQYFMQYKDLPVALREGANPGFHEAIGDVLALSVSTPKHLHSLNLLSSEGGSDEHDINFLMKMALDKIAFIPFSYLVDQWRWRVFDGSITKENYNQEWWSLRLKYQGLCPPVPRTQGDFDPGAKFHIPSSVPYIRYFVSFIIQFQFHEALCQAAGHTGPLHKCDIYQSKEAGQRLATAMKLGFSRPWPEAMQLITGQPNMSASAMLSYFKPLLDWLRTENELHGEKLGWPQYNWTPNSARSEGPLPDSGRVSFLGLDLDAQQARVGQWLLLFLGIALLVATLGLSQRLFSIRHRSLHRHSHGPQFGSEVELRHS

Row | ACE inhibitory activity per unit weight relative to VPP (ACE) | Substance | Hypotensive effect [1]
1 | 1.7 times that of VPP | Ile-Pro-Pro [IPP] | strong hypotensive effect
2 |  | Val-Pro-Pro [VPP] | strong hypotensive effect
